Results as given in ChEMBL document CHEMBL1128054, “The synthesis of pyrazolo[4,3-c]- and imidazo[4,5-c]-Aryl[e]fused pyridines as structural analogues of 4-aminonicotinoates” (Bioorg Med Chem Lett, 1995).

Target: GABA-A receptor; anion channel
Assay: Inhibition of [35S][…] (TBPS) binding to Gamma-aminobutyric acid receptor
Type: protein-complex assay

Compound	IC50 [nM]
Cc1nc2sc3c(c2c(N)c1C(=O)OCc1ccc(Cl)cc1)CCC1(C3)OCCO1	310
CCOC(=O)c1c(C)nc2sc3c(c2c1N)CCC1(C3)OCCO1	16400
Cc1nc2sc3c(c2c2nn(Cc4ccccc4)c(O)c12)CCC1(C3)OCCO1	> 100000
Cc1nc2sc3c(c2c(N)c1C(=O)OCc1ccccc1)CCC1(C3)OCCO1	1400
Cc1nc2sc3c(c2c2ncn(CCc4ccc(Cl)cc4)c12)CCC1(C3)OCCO1	2700
Cc1[nH]c2sc3c(c2c2ncnc1-2)CCC1(C3)OCCO1	> 100000
CCOC(=O)c1c(C)nc2c(c1N)c1ccccc1n2C	2000
C#CCOC(=O)c1c(C)nc2sc3c(c2c1N)CCC1(C3)OCCO1	780
Cc1nc2sc3c(c2c2ncn(CCC4CC4)c12)CCC1(C3)OCCO1	6300
Cc1nc2sc3c(c2c2ncn(CC4CC4)c12)CCC1(C3)OCCO1	8900
Cc1nc2sc3c(c2c(N)c1C(=O)OCC1CC1)CCC1(C3)OCCO1	870
COC(=O)c1c(C)nc2c(c1N)c1ccccc1n2C	2000
Cc1nc2sc3c(c2c(N)c1C(=O)OCCC1CC1)CCC1(C3)OCCO1	240
C#CCCOC(=O)c1c(C)nc2sc3c(c2c1N)CCC1(C3)OCCO1	320
CCCOC(=O)c1c(C)nc2c(c1N)c1ccccc1n2C	2000
